Measurements from patent publication US20140331363A1, “PLANTS WITH ALTERED GLUCURONOXYLAN METHYL TRANSFERASE ACTIVITY AND METHODS OF USE” (UNIVERSITY OF GEORGIA RESEARCH FOUNDATION, INC., priority 2011, published 2014).

Assays:
GXMT1 [1] = biological target: T1, GXMT1 (Arabidopsis thaliana, UniProt Q9LQ32); experiment: GXMT1 4-O-methyltransferase activity of metal-depleted enzyme, SAH formation by LC-ESI-MS; type: biochemical; conditions: for effect on GXMT1 enzyme activity: metal salts or EDTA at 1 mM, metal-depleted GXMT1
T1 construct: made in house; host or cells: E. coli BL21-CodonPlus (DE3)-RIPL, pGEX-5X1 vector
T1 sequence (Q9LQ32 44-297): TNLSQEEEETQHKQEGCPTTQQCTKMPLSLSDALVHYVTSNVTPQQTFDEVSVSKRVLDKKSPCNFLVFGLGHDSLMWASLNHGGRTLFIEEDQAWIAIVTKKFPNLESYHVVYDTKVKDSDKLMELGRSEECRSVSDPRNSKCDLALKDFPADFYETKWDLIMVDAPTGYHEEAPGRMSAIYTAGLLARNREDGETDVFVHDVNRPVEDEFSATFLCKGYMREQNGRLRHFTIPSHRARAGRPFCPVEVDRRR
Protocol: The transfer of a methyl group from SAM to GlcA results in the formation of S-adenosyl homocysteine (SAH). The amounts of SAH formed were determined by LC-ESI-MS (Salyan et al., 2006, Anal Biochem 349:112-117). (B) The effect on GXMT activity of different divalent metals. Protein and buffer solutions were treated with Chelex-100 resin to remove divalent cations prior to initiating the methylation reaction. Metal salts or EDTA were used at a concentration of 1 mM. […] Reaction mixtures were allowed to equilibrate to the specified temperature for 30 min and then the methylation reaction was initiated by the addition of SAMe (15 mM).
Determination of methyltransferase activity using LC-ESI-MS. Glucuronoxylan 4-O-methyltransferase activity was determined using a liquid chromatography-electrospray ionization/mass spectroscopy (LC-ESI-MS) method using selective reaction monitoring (SRM) that measures the formation of S-adenosylhomocysteine from SAM (S17). LC-ESI-MS analyses were performed on a LTQ-XL linear ion trap mass spectrometer (ThermoFisher, Waltham, Mass.) equipped with a Surveyor MS Pump Plus HPLC, a Surveyor Autosampler Plus. Chromatographic separation was as described (Salyan et al., 2006, Anal Biochem 349:112-117). S-adenosylhomocysteine (SAH) eluted at 3.2 min. Thus, the material eluting between 2.5 and 5 min was transferred to the mass spectrometer using an in-line divert/inject valve. The selected reaction monitoring transition used was 385.1>250.1 with a collision energy of 20%. The detection limit was 60.25 nM S-adenosylhomocysteine with a linear response up to 3 μM. […]

GXMT1 [2] = biological target: T1, GXMT1; experiment: GXMT1 methyltransferase activity monitored by 1H NMR (GlcA methylation of gxmt1-1 glucuronoxylan); type: biochemical
Protocol: FIG. 12. […] After 48 hours the products formed were treated with endoxylanase and the resulting oligosaccharides were characterized by ^1H NMR spectroscopy. The extent of GlcA methylation was determined by integration of the GlcA (U) and 4-O-methyl GlcA (M) H1 signals (see FIG. 1B).
Determination of Methyltransferase Activity using ^1H-NMR Spectroscopy and LC-ESI-MS. The temperature optimum for GXMT1 activity was between 19-25° C. (FIG. 10C). The transfer of methyl groups to O-4 of GlcA was established by ^1H NMR spectroscopy. Assays were performed at 23° C. in 50 mM potassium bicarbonate, pH 7.5, (250 μL) containing acceptor substrate equivalent to 2.27 mM available GlcA residues, recombinant GXMT1 (10 μM), CoCl2 (2 mM) and 1.5 mM S-adenosyl-L-methionine sulfate p-toluenesulfonate, unless otherwise indicated. The formation of SAH from SAM was determined using LC-ESI-MS (Salyan et al., 2006, Anal Biochem 349:112-117). […] Details of both assays are in Example 2.
Monitoring methyltransferase activity by ^1H-NMR spectroscopy. […] The dry reaction products were dissolved in 0.25 mL D2O and analyzed by ^1H-NMR spectroscopy. Spectra were recorded before and after endoxylanase treatment, when polymeric xylan was used as a substrate.

Compound: [Cl-].[Cl-].[Co+2] [Co^2+]
- enhancement of GXMT1 activity (GXMT1 [1]; metal salts at 1 mM, metal-depleted GXMT1 3.4 μM, 180 min, average): 1,180%

Compound: [Cu+2] [Cu^2+]
- effect on GXMT1 enzyme activity (GXMT1 [1]): completely inhibited

Compound: O=C(O)CN(CCN(CC(=O)O)CC(=O)O)CC(=O)O [EDTA]
- effect on GXMT1 enzyme activity (GXMT1 [1]): completely inhibited

Compound: Nc1ncnc2c1ncn2[C@@H]1O[C@H](CSCC[C@H](N)C(=O)O)[C@@H](O)[C@H]1O [SAH, S-adenosyl-L-homocysteine]
- reduction of O-methyl transferase activity (GXMT1 [2]; 1.5 mM SAH with SAM, 10 μM GXMT1, 48 hours): over 50%
- effect on in vitro GXMT1 activity (GXMT1 [2]; SAH added at the start of the reaction): inhibited
